In patent EP0808325B1, “[…] […] SERIES FOR […] GABA RECEPTOR” (priority 1994, dated 1996):

What was measured:
[1] = system: maximal electroshock; assay: maximal electroshock test; type: in vivo, mice; settings: Mus musculus, ip, 20% hydroxypropyl-β-cyclodextrin in water
Text: The anticonvulsant tests are similar to that described above. […]

[2] = system: rats; assay: Geller-Seifter conflict test; type: in vivo, Sprague-Dawley rats
Text: This animal model of human anxiety utilizes a conditioned state of conflict in rats to ascertain the anxiolytic properties of drugs. Rats are conditioned to bar press for positive reinforcement under two schedules of behavior (Geller and Seifter, Psychopharmacologia 1:482-492 (1960)). The first includes bar pressing under a […] schedule without punishment. The second component is a fixed ratio schedule with each bar press resulting in a positive reinforcement and a punishment. The punished component produces a state of conflict within the animal. […] An anxiolytic response would increase the punished responding without affecting the unpunished responding.
Male albino Sprague-Dawley rats (Charles River Labs, Wilmington, MA) weighing 250-300 g were used for conflict experiments and were kept on a restricted diet of Purina Lab Chow food pellets with water available at all times to maintain body weight at 85% of their free-feeding young adult levels. Rats were housed individually under a 12-hour light-dark cycle with lights on from 0700-1900.
The anti-anxiety (punishment-lessening) and response depressant effects of […] and […] were measured in rats by the conflict test of Geller and Seifter (1960). In this 63-min test, hungry rats perform a lever-press response to obtain a sweetened milk reward. The reinforcement schedule consists of punishment and nonpunishment components, alternating approximately every 15 min. Rats were trained in test chambers (Coulbourn instruments) with a lever mounted in one wall, a small dipper that delivered the 0.1-mL milk reward (1 part Eagle condensed : milk 2 parts water), and a metal grid floor through which the foot-shock punishment was administered. A DEC PDP 11/73 minicomputer running SKED (State Systems) was used for programming and recording.
Rates initially learned to respond on a continuous reinforcement schedule and progressed rapidly to 30-sec, 1-min, and 2-min variable interval (VI) schedules. On the continuous reinforcement schedule, rats received milk reward following every lever press; on the VI schedules, milk rewards were available at infrequent and variable intervals, eventually at an average of once every 2 min. Four 3-min "conflict" periods were then introduced on the unpunished VI baseline; the first started after 3 min of VI performance and the others were alternated between 12-min periods of VI responding. During conflict periods, which were signalled by the presentation of a light and a tone, the continuous reinforcement schedule was again in force and each lever press delivered both a milk reward and a brief ([…]) foot-shock punishment. Shock intensity was 0.2 mA initially, and.was increased daily in increments of 0.02 mA in order to gradually suppress lever pressing to 5 responses or less per conflict period. This training took 4-6 weeks, after which stable low rates of response were observed during conflict periods and stable high rates in the nonpunishment periods. Drug-induced increases in the rate of punished responses were taken as an index of antianxiety activity, while decreases in the rate of unpunished responses were taken as an index of response depression or sedation.

[3] = system: rats; assay: Vogel test; type: in vivo; settings: i.c.v., b-CD, 10 ug
Text: The Vogel test is based on the development of a conflict between a highly motivated behavior and an aversion. For this test, the strong motivation is thirst. The animal is water deprived for 12-16 hrs to produce the motivation to drink. During the training period the animals are exposed to the testing environment so they become accustomed to the drinking spout and minimize the fear of a novel environment. Following training, the animals are allowed access to water for 2 hrs. During this time, the animals will drink and eat their normal amount of water and food, compensating for the deprivation time. However, this schedule still produces a strong motivation to drink during the testing period.
Having been deprived of water for twelve to sixteen hours, an animal is placed in a test cage where it is allowed to drink freely for five minutes. This period is used to habituate the animal to the environment and the drinking spout Following the training period, animals have access to water and food in their home cage for 2 hrs. Food is available at all times. Twenty-four hours later, drug is administered to the animal intracerebroventricularly.
After an indicated delay started from the time of injection the animal is again placed in the test cage for ten minutes. A computer counts each time the animal licks, and after every twentieth lick administers a mild electric stimulus across the tongue and/or feet. The electrical stimulus consists of a 0.6 mA current with a duration of 100 msec. This procedure produces a state of conflict for the animal that is reduced by the administration of clinically used anxiolytic agents (i.e., Valium). For dose-response curves, separate groups of animals are injected with increasing doses of test drug and are tested at a predetermined time.

[4] = biological target: GR complex; assay: modulation of [35S]TBPS binding in rat cerebral cortex P2 homogenate; design: species or system Sprague-Dawley rats; IMAX: unit not given here
Summary of the method: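 Rat (male Sprague-Dawley) cortical P2 homogenate, 0.5 mg protein, in 50 mM Na/K phosphate pH 7.4, 200 mM NaCl, incubated 90 min at 25° C with 2 nM [35S]TBPS plus GABA and (+)bicuculline, compounds added in DMSO. Filter-bound radioactivity counted; nonspecific binding defined with […].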

[5] = conflict test, subcutaneous administration

CC(=O)[C@H]1CC[C@H]2[C@@H]3CC[C@H]4C[C@H](O)CC[C@]4(C)[C@H]3CC[C@]12C [3α-hydroxy-5α-pregnan-20-one, reference compound]
ED50 [1]: 28.6 mg/kg | dose at which the peak effect was observed [2, 5]: 4.4 mg/kg | rate of punished responses [2, 5]: large increases | Geller/Seifter (% of control) ([2]; sc, 50% hpbcd, 5 mg/kg): 471.8 % of control | Vogel (% of control) [3]: 431.1 % of control | IC50 ([4]; concentration of compounds to inhibit 50% of control [35S]TBPS binding, 2 nM [35S]TBPS, 25°C, 90 minutes, no unit printed): 37 nM | IMAX ([4]; maximum inhibition of [35S]TBPS binding, I* = Inactive): 95
